# How the values were obtained:
# [1] = Gravimetric moisture sorption (GMS); type: physicochemical; details: (25 ± 0.1)° C.; for Comment (hygroscopicity / behaviour upon moisture contact) / Δm (0-80% RH): 0-80% RH; for Δm (0-80% RH): gravimetric moisture sorption
# Description: Moisture sorption isotherms were recorded with an SPSx-1μ moisture sorption analyzer (ProUmid, Ulm). The measurement cycle was started at ambient relative humidity (RH) of 40%. Relative humidity was then decreased to 5% RH in 5% steps, followed by a further decrease to 3% RH and to 0% RH. Afterwards RH was increased from 0% to 90% in a sorption cycle and decreased to 0% in a desorption cycle in 5% steps. Finally RH was increased from 0 to 40% in 5% steps.
# The time per step was set to a minimum of 2 hours and a maximum of 6 hours. If an equilibrium condition with a constant mass of +0.01% within 1 hour was reached before the maximum time for all examined samples the sequential humidity step was applied before the maximum time of 6 hours. If no equilibrium was achieved the consecutive humidity step was applied after the maximum time of 6 hours. The temperature was 25±0.1° C.
# [2] = Thermogravimetric analysis (TGA); type: physicochemical; details: for stability against temperature stress: DSC and TGA, Examples 7 and 8
# Description: TGA was performed on a Mettler TGA/DSC 1 instrument. The samples (5.15 mg Form I, 5.69 Form II, 3.97 mg Form HyA, and 8.55 mg Form HyB) were each heated in a 100 microliter aluminium pan closed with an aluminium lid from 25 to 300° C. at a rate of 10 K/min. The lid was automatically pierced at the beginning of the measurement. Nitrogen (purge rate 50 mL/min) was used as purge gas.
Comment (hygroscopicity / behaviour upon moisture contact) [1],Δm (0-80% RH) [1],stability against temperature stress [2],Structure (SMILES),also measured
Slightly hygroscopic,+1.9 w-%,stable against temperature stress,"CC(C)NC(=O)COc1cccc(-c2nc(Nc3ccc4[nH]ncc4c3)c3ccccc3n2)c1.CS(=O)(=O)O [Mesylate Form I, 2-(3-(4-(1H-indazol-5-ylamino)quinazolin-2-yl)phenoxy)-N-isopropylacetamide methane sulfonic acid]","Comment (hygroscopicity / behaviour upon moisture contact) ([1]; listed as belumosudil mesylate Form I): only slightly hygroscopic; Δm (0-250° C.), TGA mass loss ([2]; 0-250° C., 10 K/min, nitrogen): Δm (0-250° C.) = 0.87%, anhydrate"
Very hygroscopic,+21.2 w % w-%,–,"CC(C)NC(=O)COc1cccc(-c2nc(Nc3ccc4[nH]ncc4c3)c3ccccc3n2)c1.CS(=O)(=O)O [Amorphous mesylate, 2-(3-(4-(1H-indazol-5-ylamino)quinazolin-2-yl)phenoxy)-N-isopropylacetamide methane sulfonic acid]",Comment (hygroscopicity / behaviour upon moisture contact) ([1]; listed as amorphous belumosudil mesylate): moderately hygroscopic
Slightly hygroscopic,+1.4 w-%,stable against temperature stress,"CC(C)NC(=O)COc1cccc(-c2nc(Nc3ccc4[nH]ncc4c3)c3ccccc3n2)c1.CS(=O)(=O)O [Mesylate Form II, 2-(3-(4-(1H-indazol-5-ylamino)quinazolin-2-yl)phenoxy)-N-isopropylacetamide methane sulfonic acid]","Comment (hygroscopicity / behaviour upon moisture contact) ([1]; listed as Form II): only slightly hygroscopic; Δm (0-100° C.), TGA mass loss ([2]; 0-100° C., 10 K/min, nitrogen): Δm (0-100° C.) = 0.32%, anhydrate"
–,–,–,"CC(C)NC(=O)COc1cccc(-c2nc(Nc3ccc4[nH]ncc4c3)c3ccccc3n2)c1.CS(=O)(=O)O [Mesylate Form HyB, 2-(3-(4-(1H-indazol-5-ylamino)quinazolin-2-yl)phenoxy)-N-isopropylacetamide methane sulfonic acid]","Δm (0-140° C.), TGA mass loss ([2]; 0-140° C., 10 K/min, nitrogen): Δm (0-140° C.) = 3.19%, corresponds to a monohydrate"
–,–,–,"CC(C)NC(=O)COc1cccc(-c2nc(Nc3ccc4[nH]ncc4c3)c3ccccc3n2)c1.CS(=O)(=O)O [Mesylate Form HyA, 2-(3-(4-(1H-indazol-5-ylamino)quinazolin-2-yl)phenoxy)-N-isopropylacetamide methane sulfonic acid]","Relative humidity of dehydration (release of crystal water) [1]: Dehydration below 3% RH; Δm (0-130° C.), TGA mass loss ([2]; 0-130° C., 10 K/min, nitrogen): Δm (0-130° C.) = 5.97%, corresponds to a dihydrate"

# From patent publication US20240343712A1, “SOLID-STATE FORMS OF 2-(3-(4-(1H-INDAZOL-5-YLAMINO)QUINAZOLIN-2-YL)PHENOXY)-N-ISOPROPYLACETAMIDE METHANE SULFONIC ACID SALT” (Sandoz AG, priority 2021, published 2024)
